The values that follow come from BindingDB's records for doi:10.1016/j.jmb.2008.04.054 (Gilead Sciences, 2008).

For this assay, the target named is T1, Gag-Pol polyprotein [1148-1435] (Human immunodeficiency virus 1, UniProt P04585).
T1 construct: 1148-1435
The assay is described as follows: Integrase 3-End Joining Assay. Conditions: pH 7.3; 22 °C. The procedure: In the 3-end joining assay, the biotinylated donor DNA was bound to streptavidin-coated plates, and integrase was added to each well to allow processing of the donor DNA. Serially diluted compounds and DIG-tagged target DNA were then added to each well, and 3-end joining reaction was allowed to proceed for 30 min. Signal was detected using horseradishperoxidase-conjugated anti-Digoxin antibody through chemiluminescence measurement.

pIC50: −log10 of the molar value.

Compound `O=C(NCc1ccc(F)cc1)c1nc(N2CCCCS2(=O)=O)c2cccnc2c1O` [5-(1,1-dioxo-1,2-thiazinan-2-yl)-N-[(4-fluorophenyl)methyl]-8-hydroxy-1,6-naphthyridine-7-carboxamide] gave a pIC50 of 7.36.
On to `CC[C@H](CO)n1cc(C(=O)O)c(=O)c2cc(Cc3cccc(Cl)c3F)ccc21` [6-[(3-chloro-2-fluorophenyl)methyl]-1-[(2R)-1-hydroxybutan-2-yl]-4-oxo-1,4-dihydroquinoline-3-carboxylic acid], for which the pIC50 is 7.38.
Compound `COc1c2c(cc3ncccc13)C(=O)N(Cc1ccc(F)cc1)C2` [7-[(4-fluorophenyl)methyl]-5-methoxy-6H,7H,8H-pyrrolo[3,4-g]quinolin-8-one] showed a pIC50 of 4.62. Against the preceding compound, the pIC50 is 2.76 log units lower.
Under `COc1c2c(c(O)c3ncccc13)C(=O)N(Cc1ccc(F)cc1)C2` stands 7.22; under `COc1c2c(c(OC)c3ncccc13)C(=O)N(Cc1ccc(F)cc1)C2` [7-[(4-fluorophenyl)methyl]-5,9-dimethoxy-6H,7H,8H-pyrrolo[3,4-g]quinolin-8-one], below 3.00; under `O=C(O)C(=O)CC(=O)c1cccc(Cc2ccccc2)c1` [(2Z)-4-(3-benzylphenyl)-2-hydroxy-4-oxobut-2-enoic acid], 7.59.
